Results taken from ChEMBL document CHEMBL1201862, “PubChem BioAssay data set” (2004).
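96-well plates; 48 h exposure; 5 concentrations. Endpoints by linear interpolation between flanking doses. Not reached: highest tested concentration assigned. Here, GI50 denotes the concentration required for 50% inhibition of growth.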 Active and inactive are the calls of the source. No stated cut-off is given here; in the data, active = GI50 up to about 1.1 µM and inactive = higher.

Key:
Test in all cases: NCI-60 cell line screen, 48 h
HCT-116 = tested on: HCT-116
RXF 393 = tested on: RXF 393
A549 = tested on: A549
TK-10 = tested on: TK-10
NCI-H522 = tested on: NCI-H522
SK-MEL-28 = tested on: SK-MEL-28
COLO 205 = tested on: COLO 205
SK-MEL-5 = tested on: SK-MEL-5
SF-539 = tested on: SF-539
NCI-H23 = tested on: NCI-H23
HCT-15 = tested on: HCT-15
HCC 2998 = tested on: HCC 2998
PC-3 = tested on: PC-3
ACHN = tested on: ACHN
MCF7 = tested on: MCF7
NCI/ADR-RES = tested on: NCI/ADR-RES
SN12C = tested on: SN12C
OVCAR-3 = tested on: OVCAR-3
K562 = tested on: K562
HOP-92 = tested on: HOP-92

Structure (SMILES)	GI50 (HCT-116)	GI50 (RXF 393)	GI50 (A549)	GI50 (TK-10)	GI50 (NCI-H522)	GI50 (SK-MEL-28)	GI50 (COLO 205)	GI50 (SK-MEL-5)	GI50 (SF-539)	GI50 (NCI-H23)	GI50 (HCT-15)	GI50 (HCC 2998)	GI50 (PC-3)	GI50 (ACHN)	GI50 (MCF7)	GI50 (NCI/ADR-RES)	GI50 (SN12C)	GI50 (OVCAR-3)	GI50 (K562)	GI50 (HOP-92)
COc1cc(Cn2c3c(c4c(C(=O)NCCN(C)C)c(O)ccc42)C(=O)c2ccccc2C3=O)cc(OC)c1	1.76 µM (inactive)	1.68 µM (inactive)	1.88 µM (inactive)	1.61 µM (inactive)	1.71 µM (inactive)	1.9 µM (inactive)	1.81 µM (inactive)	1.67 µM (inactive)	1.79 µM (inactive)	2.09 µM (inactive)	1.88 µM	1.13 µM (inactive)	1.7 µM (inactive)	1.48 µM (inactive)	2 µM (inactive)	2.32 µM (inactive)	1.85 µM (inactive)	1.73 µM (inactive)	1.37 µM (inactive)	
COc1ccc(C(c2ccccc2)N2C(=O)CCC2C(=O)O)cc1OC (centres undefined)	> 100 µM (inactive)		> 100 µM (inactive)	> 100 µM (inactive)	> 100 µM (inactive)	14 µM (inactive)	> 100 µM (inactive)	> 100 µM (inactive)	> 100 µM (inactive)	> 100 µM (inactive)	> 100 µM	> 100 µM (inactive)	> 100 µM (inactive)	> 100 µM (inactive)	> 100 µM (inactive)	> 100 µM (inactive)	> 100 µM (inactive)	> 100 µM (inactive)	> 100 µM (inactive)	> 100 µM (inactive)
NCC#CCNCCCN1CC1	> 100 µM (inactive)		> 100 µM (inactive)	> 100 µM (inactive)	> 100 µM (inactive)	> 100 µM (inactive)	> 100 µM (inactive)	> 100 µM (inactive)	> 100 µM (inactive)	> 100 µM (inactive)	> 100 µM	> 100 µM (inactive)	> 100 µM (inactive)	> 100 µM (inactive)	> 100 µM (inactive)	> 100 µM (inactive)	> 100 µM (inactive)	> 100 µM (inactive)	> 100 µM (inactive)	> 100 µM (inactive)
CC1OC(NCCNCCNC2OC(C)C(O)C(O)C2O)C(O)C(O)C1O (centres undefined)	> 100 µM (inactive)	> 100 µM (inactive)	> 100 µM (inactive)	> 100 µM (inactive)	> 100 µM (inactive)	> 100 µM (inactive)	> 100 µM (inactive)	> 100 µM (inactive)	> 100 µM (inactive)	> 100 µM (inactive)	> 100 µM		> 100 µM (inactive)	> 100 µM (inactive)	> 100 µM (inactive)	> 100 µM (inactive)	> 100 µM (inactive)	> 100 µM (inactive)	> 100 µM (inactive)	> 100 µM (inactive)
O=[N+]([O-])/C(C(Cl)=C(Cl)Cl)=C(\N1CCOCC1)n1nnc2ccccc21	18.7 µM (inactive)		16.7 µM (inactive)	29.3 µM (inactive)	16 µM (inactive)	22.5 µM (inactive)	18.8 µM (inactive)	17.6 µM (inactive)	15.4 µM (inactive)	16.7 µM (inactive)	15.4 µM		17.1 µM (inactive)	18.7 µM (inactive)	19.7 µM (inactive)	25.9 µM (inactive)	19.3 µM (inactive)	19.8 µM (inactive)		18.3 µM (inactive)
CC(C(=O)O)C1Nc2ccccc2NC1=O (centres undefined)	> 100 µM (inactive)	> 100 µM (inactive)	> 100 µM (inactive)	> 100 µM (inactive)		> 100 µM (inactive)	> 100 µM (inactive)	> 100 µM (inactive)	> 100 µM (inactive)	> 100 µM (inactive)	> 100 µM	> 100 µM (inactive)	> 100 µM (inactive)	> 100 µM (inactive)	> 100 µM (inactive)	> 100 µM (inactive)		> 100 µM (inactive)	> 100 µM (inactive)	> 100 µM (inactive)
Cc1ccc(C2(O)CS/C(=N\C34CC5CC(CC(C5)C3)C4)N2C(P(=O)(O)O)P(=O)(O)O)cc1 (centres undefined)	37.1 µM (inactive)		76.7 µM (inactive)	> 100 µM (inactive)		> 100 µM (inactive)	> 100 µM (inactive)		> 100 µM (inactive)	> 100 µM (inactive)	> 100 µM	68.1 µM (inactive)	79.3 µM (inactive)	> 100 µM (inactive)	65.2 µM (inactive)	24.2 µM (inactive)	89.3 µM (inactive)	> 100 µM (inactive)	42.7 µM (inactive)	> 100 µM (inactive)
O=[N+]([O-])c1ccc2c(c1)C(N1CCN(CCO)CC1)Cc1ccc(F)cc1S2 (centres undefined)	5 µM (inactive)	< 0.01 µM (active)	12.1 µM (inactive)	13.7 µM (inactive)	3.48 µM (inactive)	1.96 µM (inactive)	5.48 µM (inactive)	1.8 µM (inactive)	6.22 µM (inactive)	13.5 µM (inactive)	5.93 µM	2.58 µM (inactive)	2.65 µM (inactive)	4.44 µM (inactive)	10.1 µM (inactive)	10.3 µM (inactive)	11.5 µM (inactive)	16.4 µM (inactive)	2.29 µM (inactive)	
O=C(O)CSC(CC(=O)c1ccc(Cl)cc1)c1ccc(Cl)cc1 (centres undefined)	5.77 µM (inactive)		38.4 µM (inactive)	21.4 µM (inactive)	14.7 µM (inactive)		49.8 µM (inactive)	34.4 µM (inactive)	36.6 µM (inactive)	42.7 µM (inactive)	22.1 µM		37.4 µM (inactive)	79.1 µM (inactive)	22.2 µM (inactive)	38.7 µM (inactive)	43 µM (inactive)	20.7 µM (inactive)	32.1 µM (inactive)	25.8 µM (inactive)
CCOc1cc(C2CC(c3ccc(NS(=O)(=O)c4cc([N+](=O)[O-])ccc4C)cc3)=NN2c2ccc([N+](=O)[O-])cc2[N+](=O)[O-])ccc1O (centres undefined)	8.65 µM (inactive)	7.11 µM (inactive)	6.55 µM (inactive)	15.7 µM (inactive)	10.4 µM (inactive)	8 µM (inactive)	17.7 µM (inactive)	10.4 µM (inactive)	7.45 µM (inactive)	16.7 µM (inactive)	19.3 µM		20 µM (inactive)	6.76 µM (inactive)	7.46 µM (inactive)	8.04 µM (inactive)	3.15 µM (inactive)	11.4 µM (inactive)	21.3 µM (inactive)	10.4 µM (inactive)
COC1=CC2C(c3cc4ccccc4n3S(=O)(=O)c3ccccc3)CC1CN2C(=O)OCc1ccccc1 (centres undefined)	28.2 µM (inactive)	14.4 µM (inactive)	20.5 µM (inactive)	67.1 µM (inactive)	18 µM (inactive)		16.4 µM (inactive)	25.6 µM (inactive)		29.7 µM (inactive)	31.1 µM	36.5 µM (inactive)	29.3 µM (inactive)	28.6 µM (inactive)	39.9 µM (inactive)	35.7 µM (inactive)	32 µM (inactive)	19.5 µM (inactive)	33.3 µM (inactive)	
COC(=O)/C=C/N1CC1	> 10 µM (inactive)		> 10 µM (inactive)	4.09 µM (inactive)	> 10 µM (inactive)	> 10 µM (inactive)	2.19 µM (inactive)	> 10 µM (inactive)	> 10 µM (inactive)	> 10 µM (inactive)	> 10 µM	3.62 µM (inactive)	3.12 µM (inactive)	> 10 µM (inactive)	> 10 µM (inactive)	> 10 µM (inactive)	> 10 µM (inactive)	5.81 µM (inactive)	> 10 µM (inactive)	
O=C1c2cccnc2S(=O)(=O)N1c1ccc([N+](=O)[O-])cc1	> 100 µM (inactive)		> 100 µM (inactive)	> 100 µM (inactive)	24.9 µM (inactive)	> 100 µM (inactive)	> 100 µM (inactive)	> 100 µM (inactive)	> 100 µM (inactive)	> 100 µM (inactive)	> 100 µM	> 100 µM (inactive)	> 100 µM (inactive)	> 100 µM (inactive)	> 100 µM (inactive)	> 100 µM (inactive)	> 100 µM (inactive)	> 100 µM (inactive)		> 100 µM (inactive)
O=C(O)C1C2C=CC(O2)C1C(=O)Nc1ccccc1 (centres undefined)	> 100 µM (inactive)	> 100 µM (inactive)	> 100 µM (inactive)	> 100 µM (inactive)	> 100 µM (inactive)	> 100 µM (inactive)	> 100 µM (inactive)	> 100 µM (inactive)		> 100 µM (inactive)	> 100 µM		> 100 µM (inactive)	> 100 µM (inactive)	> 100 µM (inactive)	> 100 µM (inactive)	> 100 µM (inactive)	> 100 µM (inactive)	> 100 µM (inactive)	
Cc1ccc(O)c(/N=N\c2c(O)cc(S(=O)(=O)O)c3ccccc23)c1	25.5 µM (inactive)	> 100 µM (inactive)	54.6 µM (inactive)	> 100 µM (inactive)		45.3 µM (inactive)	67.6 µM (inactive)	20.7 µM (inactive)	62.5 µM (inactive)		43.6 µM	> 100 µM (inactive)	33.7 µM (inactive)	40.5 µM (inactive)	41.1 µM (inactive)	24.3 µM (inactive)		22.5 µM (inactive)	32.2 µM (inactive)	> 100 µM (inactive)
COc1nc(N)c(C#N)c(C#N)c1C#N	> 10 µM (inactive)		> 10 µM (inactive)	> 10 µM (inactive)	> 10 µM (inactive)	> 10 µM (inactive)	> 10 µM (inactive)	> 10 µM (inactive)	> 10 µM (inactive)	> 10 µM (inactive)	> 10 µM	> 10 µM (inactive)	> 10 µM (inactive)	> 10 µM (inactive)	> 10 µM (inactive)	> 10 µM (inactive)	> 10 µM (inactive)	> 10 µM (inactive)	> 10 µM (inactive)	> 10 µM (inactive)
